From ChEMBL document CHEMBL1125401, “CoMFA analysis of the interactions of antipicornavirus compounds in the binding pocket of human rhinovirus-14” (J Med Chem, 1992)
In brackets after ≈: the same amount, converted by molar mass.

Test system: rhinovirus B14
Assay: Compound was evaluated for inhibitory effect against human Rhinovirus-14
Format: functional
Conditions: not given

MIC	Structure (SMILES)
0.09 µM (≈ 0.0426 µg/mL)	OCCOCOCc1cc(CCCCCOc2c(Cl)cc(C3=NCCO3)cc2Cl)on1

Same assay, conditions: Rhinovirus B; read-out: MIC

Structure (SMILES)	MIC
CCC1COC(c2ccc(OCCCCCCCc3cc(C)no3)cc2)=N1 (stereo not given)	0.03 µM (≈ 0.0111 µg/mL)
Cc1cc(CCCCCOc2c(Cl)cc(C3=NCCO3)cc2Cl)on1 [WIN-54954]	1.5 µM (≈ 0.575 µg/mL)
OCCOCOCc1cc(CCCCCOc2c(Cl)cc(C3=NCCO3)cc2Cl)on1	0.06 µM (≈ 0.0284 µg/mL)
Cc1cc(CCCCCOc2ccc(C3=NCCO3)cc2)on1	0.51 µM (≈ 0.16 µg/mL)
Cc1cc(CCCCCCCOc2ccc(C3=NC(C)(C)CO3)cc2)on1	0.16 µM (≈ 0.0593 µg/mL)
Cc1cc(CCCCCOc2ccc(-c3nc(C)c(C)o3)cc2)on1	0.14 µM (≈ 0.0477 µg/mL)

Further compounds by falling MIC, results first:

MIC	Structure (SMILES)
2.41 µM (≈ 0.841 µg/mL)	Cc1cc(CCCCCOc2ccc(C3=NCCO3)cc2Cl)on1
0.06 µM (≈ 0.0267 µg/mL)	Cc1cc(-c2nnn(C)n2)cc(C)c1OCCCCCc1cc(COCOCCO)no1
0.05 µM (≈ 0.0178 µg/mL)	Cc1cc(CCCCCCCOc2ccc(C3=NC(C)CO3)cc2)on1 (stereo not given)
